What was measured:
Experiment in all cases: relative viability (nuclei count vs DMSO), 5 days (fraction); higher = more cells survive
BEN = system: BEN
How it was run: (§1)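 The day after seeding in 1536-well plates, lung cancer cell lines were treated by pin tool with a single drug, or with a fixed anchor-drug dose together with five library-drug doses (not always all listed) in √10 steps. After 5 days, a combined fix-and-stain solution (final 0.05% Triton X-100, 1% formaldehyde, 1 ug/ml Hoechst) was added. Nuclei counted on 4× images gave relative viability as treated counts over vehicle counts, reported as the median of duplicate plates.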

HCC-15 = system: HCC-15
How it was run: as §1

HCC-78 = system: HCC-78
How it was run: as §1

LC-2-ad = system: LC-2-ad
How it was run: as §1

LCLC-97TM1 = system: LCLC-97TM1
How it was run: as §1

LK-2 = system: LK-2
How it was run: as §1

LU99A = system: LU99A
How it was run: as §1

LXF-289 = system: LXF-289
How it was run: as §1

NCI-H1651 = system: NCI-H1651
How it was run: as §1

NCI-H1666 = system: NCI-H1666
How it was run: as §1

NCI-H1944 = system: NCI-H1944
How it was run: as §1

NCI-H2087 = system: NCI-H2087
How it was run: as §1

NCI-H322M = system: NCI-H322M
How it was run: as §1

NCI-H358 = system: NCI-H358
How it was run: as §1

NCI-H596 = system: NCI-H596
How it was run: as §1

NCI-H650 = system: NCI-H650
How it was run: as §1

NCI-H661 = system: NCI-H661
How it was run: as §1

NCI-H838 = system: NCI-H838
How it was run: as §1

PC-3 [JPC-3] = system: PC-3 [JPC-3]
How it was run: as §1

SK-MES-1 = system: SK-MES-1
How it was run: as §1

UMC-11 = system: UMC-11
How it was run: as §1

For `CC1(C)CCC(c2ccc(Cl)cc2)=C(CN2CCN(c3ccc(C(=O)NS(=O)(=O)c4ccc(N[C@H](CCN5CCOCC5)CSc5ccccc5)c(S(=O)(=O)C(F)(F)F)c4)cc3)CC2)C1` [Navitoclax] + CS(=O)(=O)CCNCc1ccc(-c2ccc3ncnc(Nc4ccc(OCc5cccc(F)c5)c(Cl)c4)c3c2)o1 [Lapatinib] (partner 2 µM), the relative viability (BEN; first compound 0.005 µM) was 0.718, the relative viability (BEN; first compound 0.01581 µM) was 0.596 and the relative viability (BEN; first compound 0.05 µM) was 0.772. For the same compound, the relative viability (BEN; first compound 0.1581 µM) was 0.714, the relative viability (BEN; first compound 0.5 µM) was 0.647 and the relative viability (HCC-15; first compound 0.005 µM) was 0.814. The relative viability (HCC-15; first compound 0.01581 µM) was 0.946, the relative viability (HCC-15; first compound 0.05 µM) was 0.713 and the relative viability (HCC-15; first compound 0.1581 µM) was 0.813. The relative viability (HCC-15; first compound 0.5 µM) was 0.836, the relative viability (HCC-78; first compound 0.005 µM) was 0.704 and the relative viability (HCC-78; first compound 0.01581 µM) was 0.987. For the same compound, the relative viability (HCC-78; first compound 0.1581 µM) was 0.75, the relative viability (HCC-78; first compound 0.5 µM) was 0.76 and the relative viability (LC-2-ad; first compound 0.005 µM) was 0.936. The relative viability (LC-2-ad; first compound 0.01581 µM) was 1.02, the relative viability (LC-2-ad; first compound 0.05 µM) was 0.898 and the relative viability (LC-2-ad; first compound 0.1581 µM) was 1.01. The relative viability (LC-2-ad; first compound 0.5 µM) was 0.96, the relative viability (LCLC-97TM1; first compound 0.005 µM) was 0.884 and the relative viability (LCLC-97TM1; first compound 0.01581 µM) was 1.21. The relative viability (LCLC-97TM1; first compound 0.05 µM) was 0.865, the relative viability (LCLC-97TM1; first compound 0.1581 µM) was 0.856 and the relative viability (LCLC-97TM1; first compound 0.5 µM) was 1.17. The relative viability (LK-2; first compound 0.005 µM) was 0.802, the relative viability (LK-2; first compound 0.01581 µM) was 1.08 and the relative viability (LK-2; first compound 0.05 µM) was 1.04. For the same compound, the relative viability (LK-2; first compound 0.1581 µM) was 0.886, the relative viability (LK-2; first compound 0.5 µM) was 1.05 and the relative viability (LU99A; first compound 0.005 µM) was 0.985. It also gave a relative viability (LU99A; first compound 0.01581 µM) of 1.19, a relative viability (LU99A; first compound 0.05 µM) of 0.977 and a relative viability (LU99A; first compound 0.1581 µM) of 1.04. The relative viability (LU99A; first compound 0.5 µM) was 1.07, the relative viability (LXF-289; first compound 0.005 µM) was 0.9 and the relative viability (LXF-289; first compound 0.01581 µM) was 0.91. The relative viability (LXF-289; first compound 0.05 µM) was 0.864, the relative viability (LXF-289; first compound 0.1581 µM) was 0.901 and the relative viability (LXF-289; first compound 0.5 µM) was 0.902. For the same compound, the relative viability (NCI-H1651; first compound 0.005 µM) was 0.767, the relative viability (NCI-H1651; first compound 0.01581 µM) was 0.984 and the relative viability (NCI-H1651; first compound 0.1581 µM) was 0.803. It also gave a relative viability (NCI-H1651; first compound 0.5 µM) of 0.837, a relative viability (NCI-H1666; first compound 0.005 µM) of 0.584 and a relative viability (NCI-H1666; first compound 0.01581 µM) of 0.694. It also gave a relative viability (NCI-H1666; first compound 0.05 µM) of 0.524, a relative viability (NCI-H1666; first compound 0.1581 µM) of 0.579 and a relative viability (NCI-H1666; first compound 0.5 µM) of 0.425. The relative viability (NCI-H1944; first compound 0.005 µM) was 0.869, the relative viability (NCI-H1944; first compound 0.01581 µM) was 0.871 and the relative viability (NCI-H1944; first compound 0.05 µM) was 0.629. The relative viability (NCI-H1944; first compound 0.1581 µM) was 0.788, the relative viability (NCI-H1944; first compound 0.5 µM) was 0.833 and the relative viability (NCI-H2087; first compound 0.005 µM) was 1.15. It also gave a relative viability (NCI-H2087; first compound 0.01581 µM) of 1.06, a relative viability (NCI-H2087; first compound 0.05 µM) of 0.837 and a relative viability (NCI-H2087; first compound 0.1581 µM) of 0.925. The relative viability (NCI-H2087; first compound 0.5 µM) was 1.02, the relative viability (NCI-H322M; first compound 0.005 µM) was 0.672 and the relative viability (NCI-H322M; first compound 0.01581 µM) was 0.603. It also gave a relative viability (NCI-H322M; first compound 0.05 µM) of 0.625, a relative viability (NCI-H322M; first compound 0.1581 µM) of 0.535 and a relative viability (NCI-H322M; first compound 0.5 µM) of 0.576. For the same compound, the relative viability (NCI-H358; first compound 0.005 µM) was 0.481, the relative viability (NCI-H358; first compound 0.01581 µM) was 0.601 and the relative viability (NCI-H358; first compound 0.05 µM) was 0.397. The relative viability (NCI-H358; first compound 0.1581 µM) was 0.482, the relative viability (NCI-H358; first compound 0.5 µM) was 0.583 and the relative viability (NCI-H596; first compound 0.005 µM) was 1.12. For the same compound, the relative viability (NCI-H596; first compound 0.01581 µM) was 1.23, the relative viability (NCI-H596; first compound 0.05 µM) was 0.955 and the relative viability (NCI-H596; first compound 0.1581 µM) was 1.28. It also gave a relative viability (NCI-H596; first compound 0.5 µM) of 1.06, a relative viability (NCI-H650; first compound 0.005 µM) of 0.709 and a relative viability (NCI-H650; first compound 0.01581 µM) of 0.977. For the same compound, the relative viability (NCI-H650; first compound 0.05 µM) was 1.07, the relative viability (NCI-H650; first compound 0.1581 µM) was 0.894 and the relative viability (NCI-H650; first compound 0.5 µM) was 0.881. It also gave a relative viability (NCI-H661; first compound 0.005 µM) of 0.542, a relative viability (NCI-H661; first compound 0.01581 µM) of 0.613 and a relative viability (NCI-H661; first compound 0.05 µM) of 0.484. The relative viability (NCI-H661; first compound 0.1581 µM) was 0.504, the relative viability (NCI-H661; first compound 0.5 µM) was 0.391 and the relative viability (NCI-H838; first compound 0.005 µM) was 0.921. For the same compound, the relative viability (NCI-H838; first compound 0.01581 µM) was 1.16, the relative viability (NCI-H838; first compound 0.05 µM) was 1.29 and the relative viability (NCI-H838; first compound 0.1581 µM) was 0.97. It also gave a relative viability (NCI-H838; first compound 0.5 µM) of 1.03, a relative viability (PC-3 [JPC-3]; first compound 0.005 µM) of 0.403 and a relative viability (PC-3 [JPC-3]; first compound 0.01581 µM) of 0.438. For the same compound, the relative viability (PC-3 [JPC-3]; first compound 0.05 µM) was 0.441, the relative viability (PC-3 [JPC-3]; first compound 0.1581 µM) was 0.474 and the relative viability (PC-3 [JPC-3]; first compound 0.5 µM) was 0.487. It also gave a relative viability (SK-MES-1; first compound 0.005 µM) of 0.462, a relative viability (SK-MES-1; first compound 0.01581 µM) of 0.552 and a relative viability (SK-MES-1; first compound 0.05 µM) of 0.497. The relative viability (SK-MES-1; first compound 0.1581 µM) was 0.458, the relative viability (SK-MES-1; first compound 0.5 µM) was 0.523 and the relative viability (UMC-11; first compound 0.005 µM) was 0.862. The relative viability (UMC-11; first compound 0.01581 µM) was 1.02, the relative viability (UMC-11; first compound 0.05 µM) was 0.747 and the relative viability (UMC-11; first compound 0.1581 µM) was 0.858. For the same compound, the relative viability (UMC-11; first compound 0.5 µM) was 0.481.

Reference: the supplement of paper PMC10307832
